Measurements from patent US11643439B2, “Multi-target compound with anticoagulation and antiplatelet activity, preparation method therefor, and use thereof” (SHAANXI MICOT TECHNOLOGY LIMITED COMPANY, priority 2015, dated 2023).

Key:
[1] = tested on: whole blood coagulation; test: ACT in rabbits, intravenous maintenance administration; assay type: in vivo, rabbit
Protocol: 2. Grouping and administration: 10 rabbits were randomly divided into 3 groups, […]. 1) Sham operation group (NS): Intravenous injection of the same volume of physiological saline, with the same operation method as above; 2) polypeptide 2 administration group: 8.0 mg/kg+20.0 mg/kg/h; 3) positive control enoxaparin group: 50 U/kg+150 U/kg/h. According to the body weight in kilograms of the rabbits, the first dose of the drug to be tested was dissolved in 2 mL of physiological saline for single bolus injection. The maintaining dose was dissolved in 9 ml of physiological saline, and placed in a double-channel micro-injection pump, which was dripped off within 90 minutes at a dripping speed of […]. The sham operation group was administered with the same volume of physiological saline. […]

[2] = tested on: blood coagulation function; test: APTT in rats, intravenous maintenance administration; assay type: in vivo, rat
Protocol: (§1) 160 Rats were randomly divided into groups, 5 to 10 rats per group.
(§2) According to the body weight in kilograms of the rats, the first dose of a drug was dissolved in 2 mL of physiological saline for single bolus injection. The maintaining dose of drug was dissolved in 9 ml of physiological saline, and placed in a double-channel micro-injection pump, which was dripped off within 90 minutes at a dripping speed of 0.1 ml/min. The sham operation group was administered with the same volume of physiological saline.
(§3) The rats were fasted with free access to water overnight before the experiment.
The blood samples were taken before administration, administration for 60 minutes, and before termination of administration, respectively, to determine their activated partial thromboplastin time (APTT) and prothrombin time (PT). The blood samples were centrifuged at 3510 rpm for 8 minutes to obtain platelet poor plasma (PPP). Reagent reconstruction and preservation were performed according to the operation requirements of the kit. Immediately after each blood sample was placed into a test cup and then PT and APTT reagents were added, the test was started. After the test was completed, results were recorded.
5.1 Determination of blood coagulation function: The blood samples were taken 0 min before administration, administration for 60 minutes, and termination of administration, respectively, and then determined using a platelet-aggregation coagulation factor analyzer for the blood coagulation functions (PT. APTT) and ACT.

[3] = tested on: FeCl3-induced inferior vena cava thrombosis; test: FeCl3-induced inferior vena cava thrombosis in rats; assay type: in vivo, rat
Protocol: as §1, §2, §3
15 minutes later, the filter paper was removed. And then, after observation for 45 minutes, the blood vessels and local tissues were rinsed with warm physiological saline, and the covered blood vessels were cut off. The thrombus which attached to the blood vessel walls was peeled off to be weighed on a tin foil for its wet weight, and then weighed overnight at room temperature for its dry weight. The administration was continued until the completion of the experiment.
After the experiment was completed, the segment of the blood vessels in which there had been thrombus formation was cut off, weighed for the wet weight, and then weighed overnight at room temperature for the dry weight of the thrombus. Thrombosis inhibitory rate was calculated.

[4] = tested on: femoral arterial and venous bypass thrombosis; test: Femoral arterial and venous bypass thrombosis in rabbits, single intravenous administration; assay type: in vivo, rabbit; settings: 15 min
Protocol: 1. Grouping and administration: 48 Rabbits were randomly divided into 6 groups, 8 rabbits per group. 1) Sham operation group (NS): Intravenous injection of the same volume of physiological saline; 2) positive control bivalirudin group (6 mg/kg); 3) positive control enoxaparin group (200 U/kg); 4) Low dose group of polypeptide 2 (3.0 mg/kg); 5) Medium dose group of polypeptide 2 (6.0 mg/kg); 6) High dose group of polypeptide 2 (12.0 mg/kg). Polypeptide 2 was administered by single intravenous administration. According to the body weight in kilograms of the rabbits, the sample was dissolved in 2 mL of physiological saline for single bolus injection. The sham operation group was administered with the same volume of physiological saline.
2.1 Surgery preparation of rabbits: Rabbit were sent to the laboratory for accommodation for one day, and then screened at first. Blood samples were taken from arteries within ears, which were subjected to blood routine analysis and APTT examinations, and the rabbits with a normal blood hemogram and APTT between 16 and 28 seconds were selected for experiments. The rabbits to be tested were fasted with free access to water in the night before the experiment. The rabbits were anesthetized with intravenous injection of 3% sodium pentobarbital solution at 1 ml/kg, fixed in the supine position, and then, the common carotid artery at one side, external jugular vein, femoral artery at one side, femoral vein, and forelimb vein at one side were isolated. The forelimb vein was subjected to intubation for administration; the left femoral vein was subjected to intubation for blood collection to determine the platelet aggregation rate: the femoral artery was used for the establishment of an arterial thrombosis model; the common carotid artery and external jugular vein were used for the establishment of an arterial and venous bypass thrombosis model.
2.2 Arterial and venous bypass thrombosis (AVST) model: An arterial and venous shunt consists of two casings, of which an outer casing has a length of about 8 cm and an inner diameter of 7.9 mm, the inner casing has a length of about 2.5 cm and an inner diameter of 4.8 mm. The polyethylene tube was charged with a silk thread about 8 cm long and filled with […] heparin solution, of which one end was inserted into the left femoral artery and the other end was inserted into the right femoral vein. After administration for 30 seconds, the blood flow was released, which flowed from the left artery to the polyethylene tube and returned to the right vein. After 15 minutes, the blood flow was interrupted, the silk thread was quickly removed and placed on an aluminum foil (size: 2.5 cm×2.5 cm), measured for its wet weight, and kept overnight at room temperature and weighed for its dry weight.
The femoral arteries in the […] and both sides in the rabbits were isolated and stabilized for 10 min before the administration was started. An AT model was established by covering the femoral artery with 50% FeCl3 filter paper while administration, and the filter paper was removed after covering for 15 minutes. An AVST model was established and it was taken out after […]. Observation was continued for 120 min after administration until the experiment was completed.
3.4 Thrombus weight: After the experiment was completed, the segment of the blood vessels in which there had been thrombus formation was cut off, weighed for the wet weight, and then kept overnight at room temperature and weighed for the dry weight. The thrombosis inhibitory rate was calculated with a calculation equation as follows: […]

[5] = iv 0.041 + 0.125 (mg/kg + mg/kg/h)
[6] = iv 0.125 + 0.375 (mg/kg + mg/kg/h)
[7] = iv 0.25 + 0.75 (mg/kg + mg/kg/h)
[8] = iv 0.5 + 1.25 (mg/kg + mg/kg/h)
[9] = iv 1.5 + 3.75 (mg/kg + mg/kg/h)
[10] = iv 0.08 + 0.325 (mg/kg + mg/kg/h)
[11] = iv 0.17 + 0.65 (mg/kg + mg/kg/h)
[12] = iv 0.35 + 3.3 (mg/kg + mg/kg/h)
[13] = iv 0.35 + 1.3 (mg/kg + mg/kg/h)

## D-Phe Pro Arg Pro Gly Gly Gly Gly Asn Gly Asp Phe Glu Glu Ile Pro Glu Glu Tyr Leu Glu Ala Ala Ala Lys Cys Har Gly Asp Trp Pro Cys [Polypeptide 2]
[1]; iv 8.0 + 20.0 (mg/kg+mg/kg/h), Administration 30 min
  ACT: 330.0 ± 63.6 S
[1]; iv 8.0 + 20.0 (mg/kg+mg/kg/h), Administration 60 min
  ACT: 277.5 ± 31.8 S
[1]; iv 8.0 + 20.0 (mg/kg+mg/kg/h), Administration 90 min
  ACT: 300.0 ± 63.6 S
[1]; iv 8.0 + 20.0 (mg/kg+mg/kg/h), Before administration
  ACT: 217.5 ± 95.5 S
[1]; iv 8.0 + 20.0 (mg/kg+mg/kg/h), Termination 120 min
  ACT: 172.5 ± 31.8 S
[1]; iv 8.0 + 20.0 (mg/kg+mg/kg/h), Termination 180 min
  ACT: 112.5 ± 74.2 S
[2]; [5]
  APTT Before administration: 24.54 ± 5.09
  APTT Fold of change: 1.65 ± 0.84
  APTT administration for 60 minutes: 37.29 ± 10.59
[2]; [6]
  APTT Before administration: 24.05 ± 5.44
  APTT Fold of change: 1.94 ± 0.68
  APTT administration for 60 minutes: 44.55 ± 12.74
[2]; [7]
  APTT Before administration: 24.98 ± 5.11
  APTT Fold of change: 2.22 ± 1.12
  APTT administration for 60 minutes: 53.13 ± 22.57
[2]; [8]
  APTT Before administration: 22.03 ± 4.70
  APTT Fold of change: 2.49 ± 1.38
  APTT administration for 60 minutes: 52.29 ± 25.87
[2]; iv 1 + 2.5 (mg/kg + mg/kg/h)
  APTT Before administration: 23.98 ± 6.83
  APTT Fold of change: 5.01 ± 3.00
  APTT administration for 60 minutes: 108.52 ± 56.27
[2]; [9]
  APTT Before administration: 23.94 ± 4.49
  APTT Fold of change: 3.19 ± 2.02
  APTT administration for 60 minutes: 74.62 ± 49.41
[3]; [5]
  Inferior vena cava thrombosis Inhibition percentage: 10.38%
  Inferior vena cava thrombosis Thrombus weight: 20.20 ± 10.00 mg
[3]; [6]
  Inferior vena cava thrombosis Inhibition percentage: 27.99%
  Inferior vena cava thrombosis Thrombus weight: 16.23 ± 6.76 mg
[3]; [7]
  Inferior vena cava thrombosis Inhibition percentage: 36.85%
  Inferior vena cava thrombosis Thrombus weight: 14.23 ± 4.82 mg
[3]; [8]
  Inferior vena cava thrombosis Inhibition percentage: 58.96%
  Inferior vena cava thrombosis Thrombus weight: 9.25 ± 4.86 mg
[3]; iv 1 + 2.5 (mg/kg + mg/kg/h)
  Inferior vena cava thrombosis Inhibition percentage: 56.03%
  Inferior vena cava thrombosis Thrombus weight: 9.91 ± 6.20 mg
[3]; [9]
  Inferior vena cava thrombosis Inhibition percentage: 68.37%
  Inferior vena cava thrombosis Thrombus weight: 7.13 ± 3.46 mg
[4]; single iv 3.0 mg/kg
  Thrombus dry weight: 20.2 ± 4.3 mg
  Thrombus inhibitory rate: 14.48%
[4]; single iv 6.0 mg/kg
  Thrombus dry weight: 13.5 ± 5.3 mg
  Thrombus inhibitory rate: 42.80%
[4]; single iv 12.0 mg/kg
  Thrombus dry weight: 10.6 ± 6.8 mg
  Thrombus inhibitory rate: 55.24%

## Bivalirudin: Bivalirudin for Injection, Xi'an Xintong Pharmaceutical Research Co., Ltd.; positive control thrombin inhibitor
[2]; [10]
  APTT Before administration: 25.05 ± 1.78
  APTT Fold of change: 1.36 ± 0.50
  APTT administration for 60 minutes: 34.18 ± 12.92
[2]; [11]
  APTT Before administration: 25.55 ± 5.02
  APTT Fold of change: 1.66 ± 0.60
  APTT administration for 60 minutes: 41.46 ± 14.96
[2]; [12]
  APTT Before administration: 23.16 ± 2.37
  APTT Fold of change: 4.10 ± 1.86
  APTT administration for 60 minutes: 95.86 ± 45.71
[2]; iv 0.5 + 2 (mg/kg + mg/kg/h)
  APTT Before administration: 24.77 ± 7.84
  APTT Fold of change: 3.89 ± 1.37
  APTT administration for 60 minutes: 90.23 ± 21.92
[3]; [10]
  Inferior vena cava thrombosis Inhibition percentage: 20.03%
  Inferior vena cava thrombosis Thrombus weight: 18.03 ± 1.39 mg
[3]; [11]
  Inferior vena cava thrombosis Inhibition percentage: 35.97%
  Inferior vena cava thrombosis Thrombus weight: 14.43 ± 3.84 mg
[3]; [13]
  Inferior vena cava thrombosis Inhibition percentage: 68.67%
  Inferior vena cava thrombosis Thrombus weight: 7.06 ± 4.07 mg
[3]; iv 0.5 + 2 (mg/kg + mg/kg/h)
  Inferior vena cava thrombosis Inhibition percentage: 67.79%
  Inferior vena cava thrombosis Thrombus weight: 7.26 ± 3.15 mg
[4]; single iv 6.0 mg/kg
  Thrombus dry weight: 20.8 ± 6.3 mg
  Thrombus inhibitory rate: 11.86%

## Enoxaparin
[1]; iv 50 U + 150 U, Administration 30 min
  ACT: 225.0 S
[1]; iv 50 U + 150 U, Administration 60 min
  ACT: 375.0 S
[1]; iv 50 U + 150 U, Administration 90 min
  ACT: 270.0 S
[1]; iv 50 U + 150 U, Before administration
  ACT: 180.0 S
[1]; iv 50 U + 150 U, Termination 60 min
  ACT: 210 S
[1]; iv 50 U + 150 U, Termination 120 min
  ACT: 195.0 S
[1]; iv 50 U + 150 U, Termination 180 min
  ACT: 225.0 S
[2]; iv 30 + 45 u (U/kg+U/kg/h)
  APTT Before administration: 28.99 ± 7.00
  APTT Fold of change: 1.78 ± 0.61
  APTT administration for 60 minutes: 52.28 ± 22.51
[2]; iv 30 + 120 u (U/kg+U/kg/h)
  APTT Before administration: 23.66 ± 5.88
  APTT Fold of change: 4.65 ± 1.72
  APTT administration for 60 minutes: 117.55 ± 78.85
[2]; iv 60 + 60 u (U/kg+U/kg/h)
  APTT Before administration: 23.45 ± 4.70
  APTT Fold of change: 2.66 ± 0.36
  APTT administration for 60 minutes: 61.81 ± 13.19
[2]; iv 60 + 240 u (U/kg+U/kg/h)
  APTT Before administration: 26.79 ± 4.74
  APTT Fold of change: 10.69 ± 7.14
  APTT administration for 60 minutes: 270.43 ± 166.43
[2]; iv 90 + 120 u (U/kg+U/kg/h)
  APTT Before administration: 19.04 ± 5.26
  APTT Fold of change: 16.34 ± 12.97
  APTT administration for 60 minutes: 270.85 ± 148.90
[3]; iv 30 + 45 u (U/kg+U/kg/h)
  Inferior vena cava thrombosis Inhibition percentage: 34.93%
  Inferior vena cava thrombosis Thrombus weight: 14.67 ± 8.44 mg
[3]; iv 30 + 120 u (U/kg+U/kg/h)
  Inferior vena cava thrombosis Inhibition percentage: 49.07%
  Inferior vena cava thrombosis Thrombus weight: 11.48 ± 2.81 mg
[3]; iv 60 + 60 u (U/kg+U/kg/h)
  Inferior vena cava thrombosis Inhibition percentage: 50.42%
  Inferior vena cava thrombosis Thrombus weight: 11.18 ± 4.47 mg
[3]; iv 60 + 240 u (U/kg+U/kg/h)
  Inferior vena cava thrombosis Inhibition percentage: 86.25%
  Inferior vena cava thrombosis Thrombus weight: 6.59 ± 2.54 mg
[3]; iv 90 + 120 u (U/kg+U/kg/h)
  Inferior vena cava thrombosis Inhibition percentage: 64.06%
  Inferior vena cava thrombosis Thrombus weight: 8.10 ± 3.67 mg
[4]; single iv 200 U (U/kg)
  Thrombus dry weight: 17.3 ± 6.5 mg
  Thrombus inhibitory rate: 26.88%
